Test results taken from US10273240B2, “Cortistatin analogues, syntheses, and uses thereof” (President and Fellows of Harvard College, priority 2015, dated 2019).
Like-named read-outs stand apart in the source and are kept apart here.

Legend:
Format in all cases: cell-based
SKNO-1 = experiment: Cell growth assay, SKNO-1; conditions: Homo sapiens
Experimental: (§1) All media was supplemented with 100 U/mL penicillin and 100 μg/mL streptomycin. Human cancer cell lines were grown in the following media: MV4; 11, K562, MOLM-14 in RPMI-1640, 10% FBS; SKNO-1 in RPMI-1640, 10% FBS, and 10 ng/mL GM-CSF; MV4;11 and K562 were from ATCC. SKNO-1 was from DSMZ.
(§2) Cell Culture. All media was supplemented with 100 U/mL penicillin and 100 μg/mL streptomycin. Human cancer cell lines were grown in the following media: MV4; 11, RS4; 11, K562, HEL, MOLM-14, MEG-01 in RPMI-1640, 10% FBS; SET-2 in RPMI-1640, 20% FBS; UKE-1 in RPMI-1640, 10% FBS, 10% horse serum and 1 μM hydrocortisone; SKNO-1 and TF-1 in RPMI-1640, 10% FBS, and 10 or 2 ng/mL GM-CSF, respectively; HaCaT in DMEM, 10% FBS; and HCT116 in McCoy's 5 A, 10% FBS (proliferation assay) or DMEM, 10% FBS (gene expression study). HepG2, MV4;11, RS4;11, MEG-01, TF-1, HCT116 and K562 were from ATCC. SKNO-1 was from DSMZ. HEL, UKE-1, and SET-2 were provided by Ross L. Levine and HaCaT, MV4;11-mCLP, and MOLM-14 by Van Wilson, Andrew L. Kung, and Scott A. Armstrong, respectively. MOLM-14 cells were authenticated by STR profiling and flow cytometry and all cell lines were routinely tested and found to be negative for mycoplasma.

MOLM-14 = experiment: Cell growth assay, MOLM-14; conditions: Homo sapiens
Experimental: as §1, §2

MV4;11 = experiment: Cell growth assay, MV4;11; conditions: Homo sapiens
Experimental: as §1, §2

K562 = experiment: Cell growth assay, K562; conditions: Homo sapiens
Experimental: as §1, §2

RS4;11 = experiment: Cell growth assay, RS4;11; conditions: Homo sapiens, RS4-11, 72 h, read-out: Mean GI50 (nM), RS4;11
Experimental: as §2

SET-2 = experiment: Cell growth assay, SET-2; conditions: Homo sapiens, SET-2, 72 h, read-out: Mean GI50 (nM), SET-2
Experimental: as §2

MEG-01 = experiment: Cell growth assay, MEG-01; conditions: Homo sapiens, MEG-01, 72 h, read-out: Mean GI50 (nM), MEG-01
Experimental: as §2

TF-1 = experiment: Cell growth assay, TF-1; conditions: Homo sapiens, TF-1, 72 h, read-out: Mean GI50 (nM), TF-1
Experimental: as §2

HEL = experiment: Cell growth assay, HEL; conditions: Homo sapiens, 72 h, read-out: Mean GI50 (nM), HEL
Experimental: as §2

C[C@]12CC=C3C=C4CCC(=O)NC[C@]45CC[C@]3(O5)[C@@H]1CC[C@@H]2c1ccc2ccncc2c1 [Compound 15B]
GI50 (SKNO-1; SKNO-1, 240 h, read-out: SKNO-1 GI50 day 10): 0.6 nM
GI50 (MOLM-14; MOLM-14, 240 h, read-out: MOLM14 GI50 day 10): 17.5 nM
GI50 (MV4;11; MV4-11, 240 h, read-out: MV4;11 GI50 day 10): 3.75 nM
GI50 (K562; K562, 240 h, read-out: K562 GI50 day 10): > 1000 nM

COc1cc2c(cc1-c1c(C)noc1C)ncc1[nH]c(=O)n([C@H](C)c3ccccn3)c12 [I-BET151]
GI50 (SKNO-1; SKNO-1, 72 h, I-BET151, after 3 days, read-out: Mean GI50 (nM), SKNO-1): 50 nM
GI50 (MOLM-14; MOLM-14, 72 h, I-BET151, after 3 days, read-out: Mean GI50 (nM), MOLM-14): 18 nM
GI50 (MV4;11; MV4-11, 72 h, I-BET151, after 3 days, read-out: Mean GI50 (nM), MV4;11): 20 nM
GI50 (K562; K562, 72 h, I-BET151, after 3 days, read-out: Mean GI50 (nM), K562): 750 nM
GI50 (RS4;11): 200 nM
GI50 (SET-2): 245 nM
GI50 (MEG-01): 375 nM
GI50 (TF-1): 163 nM
GI50 (HEL): 200 nM
